Assay results taken from ChEMBL document CHEMBL3272338, “Bis-basic-substituted polycyclic aromatic compounds. A new class of antiviral agents. 8. Bis-basic derivatives of carbazole, dibenzofuran, and dibenzothiophene” (1977).

Key:
Format in all cases: functional
[1] = test system: Encephalomyocarditis virus; test: Antiviral activity against Encephalomyocarditis virus infected in CF-1 mouse assessed as host survival time ratio at 10 mg/kg, sc administered 28, 22, 2 hrs before and 2 hrs after virus inoculation; conditions: route subcutaneous
[2] = test system: Encephalomyocarditis virus; test: Antiviral activity against Encephalomyocarditis virus infected in CF-1 mouse assessed as host survival time ratio at 50 mg/kg, sc administered 28, 22, 2 hrs before and 2 hrs after virus inoculation; conditions: route subcutaneous
[3] = test system: Encephalomyocarditis virus; test: Antiviral activity against Encephalomyocarditis virus infected in CF-1 mouse assessed as host survival time ratio at 250 mg/kg, sc administered 28, 22, 2 hrs before and 2 hrs after virus inoculation; conditions: route subcutaneous
[4] = test system: Encephalomyocarditis virus; test: Antiviral activity against Encephalomyocarditis virus infected in CF-1 mouse assessed as host survival time ratio at 50 mg/kg, po administered via gavage at 28, 22, 2 hrs before and 2 hrs after virus inoculation
[5] = test system: Encephalomyocarditis virus; test: Antiviral activity against Encephalomyocarditis virus infected in CF-1 mouse assessed as host survival time ratio at 250 mg/kg, po administered via gavage as single dose at 22 to 28 hrs before virus inoculation

Compound | Ratio [1] | Ratio [2] | Ratio [3] | Ratio [4] | Ratio [5]
O=C(CCCN1CCOCC1)c1ccc2oc3ccc(C(=O)CCCN4CCOCC4)cc3c2c1 | 1 | 1.39 | 1.96 | 1.08 | 1.08
CCN(CC)CCCOC(=O)c1ccc2oc3ccc(C(=O)OCCCN(CC)CC)cc3c2c1.Cl |  | 1.19 | 1.22 |  | 
CCN(CC)CCOC(=O)c1ccc2oc3ccc(C(=O)OCCN(CC)CC)cc3c2c1.Cl | 1 | 1.02 | 1.09 | 1.02 | 0.98
CN(C)CCCCC(C)(C)COC(=O)c1ccc2c(c1)sc1ccc(C(=O)OCC(C)(C)CCCN(C)C)cc12.Cl | 1.07 | 1.42 | 1.11 |  | 
CCn1c2ccc(C(=O)CCCN(C)C)cc2c2cc(C(=O)CCCN(C)C)ccc21.O=C(O)/C=C/C(=O)O | 1.42 | 1.63 | 1.44 | 0.94 | 1.06
CCCN(CCC)CCCOC(=O)c1ccc2oc3ccc(C(=O)OCCCN(CCC)CCC)cc3c2c1.Cl | 0.96 | 1.21 | 1.88 |  | 
Cl.O=C(OCCCN1CCCCC1)c1ccc2c(c1)sc1ccc(C(=O)OCCCN3CCCCC3)cc12 | 1.4 | 1.36 | 1.55 |  | 
Cl.O=C(CCCN1CCOCC1)c1ccc2c(c1)sc1ccc(C(=O)CCCN3CCOCC3)cc12 | 1.13 | 1.33 | 1.98 | 0.9 | 0.94
CN(C)CCCOC(=O)c1ccc2oc3ccc(C(=O)OCCCN(C)C)cc3c2c1.Cl | 1.19 | 1.26 | 1.36 | 1.07 | 1.07
CC(C)CCN(CCCOC(=O)c1ccc2oc3ccc(C(=O)OCCCN(CCC(C)C)CCC(C)C)cc3c2c1)CCC(C)C | 0.91 | 1.07 | 1.11 |  | 
CCn1c2ccc(OCCN3CCOCC3)cc2c2cc(OCCN3CCOCC3)ccc21 | 0.92 | 1.08 | 1.02 | 0.86 | 0.88
CCN(CC)CCCOC(=O)c1ccc2c(c1)c1cc(C(=O)OCCCN(CC)CC)ccc1n2CC.Cl | 1.33 | 1.74 | 1.87 |  | 0.75
C=CCN(CC=C)CCCOC(=O)c1ccc2oc3ccc(C(=O)OCCCN(CC=C)CC=C)cc3c2c1.Cl | 1.11 | 1.2 | 1.33 |  | 
CCn1c2ccc(CCCCN3CCCCC3)cc2c2cc(CCCCN3CCCCC3)ccc21.Cl | 1.28 | 1.45 | 0.57 |  | 
CN(C)CCCOc1ccc2oc3ccc(OCCCN(C)C)cc3c2c1.Cl | 0.92 | 1.24 | 0.66 | 0.92 | 0.88
CCn1c2ccc(OCCN3CCCCC3)cc2c2cc(OCCN3CCCCC3)ccc21.Cl | 1.16 | 1.32 | 1.25 | 1.09 | 1.09
O=C(CCCN1CCCCC1)c1ccc2oc3ccc(C(=O)CCCN4CCCCC4)cc3c2c1 |  | 1.49 | 1.81 | 1.06 | 1.19
CC1CCN(CCCC(=O)c2ccc3sc4ccc(C(=O)CCCN5CCC(C)CC5)cc4c3c2)CC1 | 1.22 | 1.84 | 1.69 | 1.06 | 1.1
O=C(CCCN1CCCCC1)c1ccc2[nH]c3ccc(C(=O)CCCN4CCCCC4)cc3c2c1 | 1.22 | 0.96 | 1 | 0.86 | 0.88
Cl.c1cc2oc3ccc(OCCCN4CCCCC4)cc3c2cc1OCCCN1CCCCC1 | 1.46 | 1.44 | 0.63 | 1.02 | 1.02
CCN(CC)CCCOC(=O)c1ccc2sc3ccc(C(=O)OCCCN(CC)CC)cc3c2c1.Cl |  | 1.77 | 1.3 |  | 
Cl.c1cc2oc3ccc(OCCN4CCCCC4)cc3c2cc1OCCN1CCCCC1 | 0.94 | 1.25 | 1.02 | 0.85 | 1.04
CCn1c2ccc(OCCCN(C)C)cc2c2cc(OCCCN(C)C)ccc21.Cl | 0.92 | 1.1 | 0.52 | 0.9 | 0.88

Compound | Ratio [1] | Ratio [2] | Ratio [3] | Ratio [4] | Ratio [5]
Cl.c1cc2oc3ccc(OCCN4CCCC4)cc3c2cc1OCCN1CCCC1 | 1.08 | 1.04 | 0.88 | 0.98 | 1
CCN(CC)CCOc1ccc2c(c1)c1cc(OCCN(CC)CC)ccc1n2CC.Cl | 1.05 | 1.13 | 0.85 | 0.87 | 0.92
CC(COc1ccc2sc3ccc(OCC(C)CN(C)C)cc3c2c1)CN(C)C.Cl (stereo unspecified) | 0.96 | 1.08 | 0.84 | 1.04 | 0.94
CC1CCCN(COC(=O)c2ccc3oc4ccc(C(=O)OCN5CCCC(C)C5)cc4c3c2)C1.Cl (stereo unspecified) | 1.07 | 1.07 | 1.05 | 1.03 | 1
CCN(CC)CC(=O)c1ccc2oc3ccc(C(=O)CN(CC)CC)cc3c2c1.Cl | 0.96 | 1.35 | 2.17 | 0.96 | 1.65
Cl.c1cc2sc3ccc(OCCCN4CCCCC4)cc3c2cc1OCCCN1CCCCC1 | 1.34 | 1.94 | 0.77 | 0.98 | 1.06
CCN(CC)CCOC(=O)c1ccc2c(c1)sc1ccc(C(=O)OCCN(CC)CC)cc12.Cl | 1.14 | 1.04 | 1.2 |  | 
CC(CN(C)C)Oc1ccc2oc3ccc(OC(C)CN(C)C)cc3c2c1.O=C(O)CC(O)(CC(=O)O)C(=O)O (stereo unspecified) | 0.94 | 1.08 | 0.9 | 0.84 | 0.84
CC(COc1ccc2oc3ccc(OCC(C)CN(C)C)cc3c2c1)CN(C)C.Cl (stereo unspecified) | 1.2 | 1.14 | 0.57 | 0.9 | 0.92
CCCCN(CCCC)CCCOC(=O)c1ccc2oc3ccc(C(=O)OCCCN(CCCC)CCCC)cc3c2c1.Cl | 1.06 | 1.4 | 1.6 |  | 
CCN(CC)CCOc1ccc2oc3ccc(OCCN(CC)CC)cc3c2c1.Cl | 1.21 | 1.31 | 0.91 | 1.17 | 1.02
CCN(CC)CCCOC(=O)c1ccc2[nH]c3ccc(C(=O)OCCCN(CC)CC)cc3c2c1.Cl | 1.04 | 1.69 | 1.47 | 1.1 | 1.17
O=C(CCCN1CCCCC1)c1ccc2c(c1)sc1ccc(C(=O)CCCN3CCCCC3)cc12 | 1.21 | 1.71 | 2.08 | 1.1 | 1.23
CCN(CC)CCOc1ccc2sc3ccc(OCCN(CC)CC)cc3c2c1.O=C(O)/C=C/C(=O)O | 0.96 | 1.12 | 1.32 | 0.88 | 0.86
Cl.c1cc2sc3ccc(OCCN4CCCCC4)cc3c2cc1OCCN1CCCCC1 | 1.09 | 1.57 | 1.3 | 0.98 | 1.02
CC(C)N(CCOc1ccc2sc3ccc(OCCN(C(C)C)C(C)C)cc3c2c1)C(C)C.Cl | 1.24 | 1.3 | 1.2 | 1.18 | 1
O=C(CCCN1CCCCC1)c1ccc2sc3ccc(C(=O)CCCN4CCCCC4)cc3c2c1 | 1.1 | 1.9 | 0.61 | 1.16 | 1.22
CCN(CC)CCCCc1ccc2c(c1)c1cc(CCCCN(CC)CC)ccc1n2CC.Cl | 1.22 | 1.22 |  | 0.98 | 1.17
CC1CCN(CCCC(=O)c2ccc3oc4ccc(C(=O)CCCN5CCC(C)CC5)cc4c3c2)CC1 | 1.23 | 2.13 | 2.04 | 1.11 | 1.19
CCCCN(CCCC)CCCOC(=O)c1ccc2sc3ccc(C(=O)OCCCN(CCCC)CCCC)cc3c2c1.Cl | 1.29 | 1.48 | 2.43 | 0.93 | 0.93
CCCCN(CCCC)CCCOc1ccc2sc3ccc(OCCCN(CCCC)CCCC)cc3c2c1.Cl | 0.88 | 1.14 | 0.96 | 0.9 | 0.88
CC(C)CCN(CCCOC(=O)c1ccc2c(c1)sc1ccc(C(=O)OCCCN(CCC(C)C)CCC(C)C)cc12)CCC(C)C.Cl | 0.96 | 0.98 | 1.11 |  | 
CCCCN(CCCC)CCCNC(=O)c1ccc2oc3ccc(C(=O)NCCCN(CCCC)CCCC)cc3c2c1.O=C(O)CC(O)(CC(=O)O)C(=O)O | 1.17 | 1.24 | 0.85 |  | 
